# What was measured:
# [1] = tested on: Smn protein in SMA patient fibroblast cells (GM03813); test: Smn protein assay in cultured cells (SMN HTRF); assay type: cell-based, human; details: SMA patient fibroblast cells, 48 hours; for EC1.5x for Smn protein expression: 7-point concentration curve, SMN HTRF, concentration producing 1.5 times Smn protein vs DMSO vehicle control; for maximum fold (Fold) increase of Smn protein: 7-point concentration data, fold relative to vehicle control
# Procedure, shortened: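 Cells were cultured 72 h, seeded at 5,000/well and dosed with seven concentrations (3.16-fold apart) for 48 h. HTRF on lysates, read at 665 and 620 nm, gave blank-corrected ΔF values relative to DMSO. Potency is reported as EC1.5×, efficacy as maximal fold Smn increase.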
# [2] = tested on: SMN2 minigene mRNA (SMN2-A minigene) in HEK293H cells; test: SMN2 minigene mRNA splicing RT-qPCR assay in cultured cells; assay type: cell-based, human; details: Homo sapiens, HEK293-H; concentration increasing full length SMN2 mRNA 1.5-fold relative to vehicle-treated cells; HEK293H cells with SMN2-A minigene, 24 hours, 7-point concentration data; read-out: EC1.5x for production of full length SMN2 mRNA
# Procedure, shortened: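 EC1.5× values derive from a 24 h treatment of SMN2-A minigene HEK293H cells and GAPDH-normalized RT-qPCR of exon 7-included minigene mRNA relative to vehicle-treated cells.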
melting point [°C],Compound,EC1.5x for Smn protein expression [1],maximum fold (Fold) increase of Smn protein [1],EC (1.5-fold increase) [2] [µM]
233 to 237,"O=c1cc(-c2ccc(O)c(OC(F)F)c2)nc2ccc(N3CCNCC3)cn12 [Compound 100, 2-[3-(difluoromethoxy)-4-hydroxyphenyl]-7-(piperazin-1-yl)-4H-pyrido[1,2-a]pyrimidin-4-one]",*** (an EC1.5× between >0.3 μM and ≤1 μM is indicated by three stars (***)),***** (a fold increase >1.65 is indicated by five stars (*****)),0.3 to 1
167 to 169,"COc1ccc(-c2cc(=O)n3cc(N4CCN[C@@H](C)C4)ccc3n2)cc1OC(F)F [Compound 101, 2-[3-(difluoromethoxy)-4-methoxyphenyl]-7-[(3S)-3-methylpiperazin-1-yl]-4H-pyrido[1,2-a]pyrimidin-4-one]",,*** (a fold increase between >1.35 and ≤1.5 is indicated by three stars (***)),0.3 to 1
192 to 197,"C[C@H]1CN(c2ccc3nc(-c4ccc(O)c(OC(F)F)c4)cc(=O)n3c2)CCN1 [Compound 102, 2-[3-(difluoromethoxy)-4-hydroxyphenyl]-7-[(3S)-3-methylpiperazin-1-yl]-4H-pyrido[1,2-a]pyrimidin-4-one]",*** (an EC1.5× between >0.3 μM and ≤1 μM is indicated by three stars (***)),***** (a fold increase >1.65 is indicated by five stars (*****)),0.3 to 1
200 to 202,"COc1ccc(-c2cc(=O)n3cc(N4CCNCC4)ccc3c2)cc1F [Compound 103, 2-(3-fluoro-4-methoxyphenyl)-7-(piperazin-1-yl)-4H-quinolizin-4-one]",,*** (a fold increase between >1.35 and ≤1.5 is indicated by three stars (***)),0.3 to 1
188 to 192,"COc1ccc(-c2cc(=O)n3cc(N4CCN[C@@H](C)C4)ccc3c2)cc1F [Compound 104, 2-(3-fluoro-4-methoxyphenyl)-7-[(3S)-3-methylpiperazin-1-yl]-4H-quinolizin-4-one]",,*** (a fold increase between >1.35 and ≤1.5 is indicated by three stars (***)),0.3 to 1
189 to 194,"C[C@H]1CN(c2ccc3nc(-c4cc(F)cc(F)c4)cc(=O)n3c2)CCN1 [Compound 105, 2-(3,5-difluorophenyl)-7-[(3S)-3-methylpiperazin-1-yl]-4H-pyrido[1,2-a]pyrimidin-4-one]",*** (an EC1.5× between >0.3 μM and ≤1 μM is indicated by three stars (***)),**** (a fold increase between >1.5 and ≤1.65 is indicated by four stars (****)),0.1 to 0.3
201 to 203,"COc1ccc(-c2cc(=O)n3cc(N4CCNCC4)ccc3n2)cc1Cl [Compound 110, 2-(3-chloro-4-methoxyphenyl)-7-(piperazin-1-yl)-4H-pyrido[1,2-a]pyrimidin-4-one]",,*** (a fold increase between >1.35 and ≤1.5 is indicated by three stars (***)),0.1 to 0.3
187 to 189,"COc1ccc(-c2cc(=O)n3cc(N4CCN[C@@H](C)C4)ccc3n2)cc1Cl [Compound 111, 2-(3-chloro-4-methoxyphenyl)-7-[(3S)-3-methylpiperazin-1-yl]-4H-pyrido[1,2-a]pyrimidin-4-one]",,*** (a fold increase between >1.35 and ≤1.5 is indicated by three stars (***)),0.1 to 0.3
194 to 196,"CCOc1cc(-c2cc(=O)n3cc(N4CCNCC4)ccc3n2)ccc1OC [Compound 112, 2-(3-ethoxy-4-methoxyphenyl)-7-(piperazin-1-yl)-4H-pyrido[1,2-a]pyrimidin-4-one]",,*** (a fold increase between >1.35 and ≤1.5 is indicated by three stars (***)),0.3 to 1
159 to 162,"CCOc1cc(-c2cc(=O)n3cc(N4CCN[C@@H](C)C4)ccc3n2)ccc1OC [Compound 113, 2-(3-ethoxy-4-methoxyphenyl)-7-[(3S)-3-methylpiperazin-1-yl]-4H-pyrido[1,2-a]pyrimidin-4-one]",,*** (a fold increase between >1.35 and ≤1.5 is indicated by three stars (***)),1 to 3
181 to 186,"Cc1cn2cc(-c3cc(=O)n4cc(N5C[C@@H](C)N[C@@H](C)C5)ccc4n3)ccc2n1 [Compound 117, 7-[(3R,5S)-3,5-dimethylpiperazin-1-yl]-2-(2-methylimidazo[1,2-a]pyridin-6-yl)-4H-pyrido[1,2-a]pyrimidin-4-one]",**** (an EC1.5x≤0.3 μM is indicated by four stars (****)),**** (a fold increase between >1.5 and ≤1.65 is indicated by four stars (****)),< 0.1

# Continued, compound first:
Compound,melting point [°C],EC1.5x for Smn protein expression [1],maximum fold (Fold) increase of Smn protein [1],EC (1.5-fold increase) [2] [µM]
"COc1ccc(-c2cc(=O)n3cc(N4CCN[C@H](C)C4)ccc3n2)cc1F [Compound 86, 2-(3-fluoro-4-methoxyphenyl)-7-[(3R)-3-methylpiperazin-1-yl]-4H-pyrido[1,2-a]pyrimidin-4-one]",175 to 178,**** (an EC1.5x≤0.3 μM is indicated by four stars (****)),**** (a fold increase between >1.5 and ≤1.65 is indicated by four stars (****)),0.1 to 0.3
"COc1ccc(-c2cc(=O)n3cc(N4CCN[C@@H](C)C4)ccc3n2)cc1F [Compound 87, 2-(3-fluoro-4-methoxyphenyl)-7-[(3S)-3-methylpiperazin-1-yl]-4H-pyrido[1,2-a]pyrimidin-4-one]",175 to 178,*** (an EC1.5× between >0.3 μM and ≤1 μM is indicated by three stars (***)),**** (a fold increase between >1.5 and ≤1.65 is indicated by four stars (****)),0.1 to 0.3
"COc1ccc(-c2cc(=O)n3cc(N4CCNCC4)ccc3n2)cn1 [Compound 88, 2-(6-methoxypyridin-3-yl)-7-(piperazin-1-yl)-4H-pyrido[1,2-a]pyrimidin-4-one]",173 to 178,,** (a fold increase between >1.2 and ≤1.35 is indicated by two stars (**)),1 to 3
"COc1ccc(-c2cc(=O)n3cc(N4CCNCC4)ccc3n2)c(OC)c1 [Compound 89, 2-(2,4-dimethoxyphenyl)-7-(piperazin-1-yl)-4H-pyrido[1,2-a]pyrimidin-4-one]",171 to 173,,*** (a fold increase between >1.35 and ≤1.5 is indicated by three stars (***)),1 to 3
"COc1ccc(-c2cc(=O)n3cc(N4CCN[C@@H](C)C4)ccc3n2)c(OC)c1 [Compound 90, 2-(2,4-dimethoxyphenyl)-7-[(3S)-3-methylpiperazin-1-yl]-4H-pyrido[1,2-a]pyrimidin-4-one]",172 to 177,* (An EC1.5× for Smn protein expression between >3 μM and ≤10 μM is indicated by one star (*)),*** (a fold increase between >1.35 and ≤1.5 is indicated by three stars (***)),1 to 3
"C[C@H]1CN(c2ccc3nc(-c4cncc(F)c4)cc(=O)n3c2)CCN1 [Compound 93, 2-(5-fluoropyridin-3-yl)-7-[(3S)-3-methylpiperazin-1-yl]-4H-pyrido[1,2-a]pyrimidin-4-one]",191 to 199,,** (a fold increase between >1.2 and ≤1.35 is indicated by two stars (**)),1 to 3
"O=c1cc(-c2cncc(Cl)c2)nc2ccc(N3CCNCC3)cn12 [Compound 94, 2-(5-chloropyridin-3-yl)-7-(piperazin-1-yl)-4H-pyrido[1,2-a]pyrimidin-4-one]",208 to 218,,*** (a fold increase between >1.35 and ≤1.5 is indicated by three stars (***)),1 to 3
"C[C@H]1CN(c2ccc3nc(-c4cncc(Cl)c4)cc(=O)n3c2)CCN1 [Compound 95, 2-(5-chloropyridin-3-yl)-7-[(3S)-3-methylpiperazin-1-yl]-4H-pyrido[1,2-a]pyrimidin-4-one]",227 to 232,** (an EC1.5× between >1 μM and ≤3 μM is indicated by two stars (**)),**** (a fold increase between >1.5 and ≤1.65 is indicated by four stars (****)),1 to 3
"COc1ncc(-c2cc(=O)n3cc(N4CCNCC4)ccc3n2)cc1Cl [Compound 96, 2-(5-chloro-6-methoxypyridin-3-yl)-7-(piperazin-1-yl)-4H-pyrido[1,2-a]pyrimidin-4-one]",201 to 209,*** (an EC1.5× between >0.3 μM and ≤1 μM is indicated by three stars (***)),**** (a fold increase between >1.5 and ≤1.65 is indicated by four stars (****)),0.3 to 1
"O=c1cc(-c2ccc3cc[nH]c3c2)nc2ccc(N3CCNCC3)cn12 [Compound 97, 2-(1H-indol-6-yl)-7-(piperazin-1-yl)-4H-pyrido[1,2-a]pyrimidin-4-one]",202 to 206,,** (a fold increase between >1.2 and ≤1.35 is indicated by two stars (**)),1 to 3

# From US11753407B2, “Compounds for treating spinal muscular atrophy” (PTC Therapeutics, Inc., priority 2012, dated 2023)
